6 molecules from ChEMBL document CHEMBL1139066, “Analogues of 2-crotonyloxymethyl-(4R,5R,6R)-4,5,6-trihydroxycyclohex-2-enone (COTC) with anti-tumor properties” (Bioorg Med Chem Lett, 2007) can be followed below.

Usually IC50 stands for the concentration at which inhibition is half-maximal.

One assay concerns NCI-H460. Briefly: Cytotoxicity against human H460 cells by MTT assay. The class given is functional, cell-based.
In a further assay the test system is A549. Briefly: Cytotoxicity against human A549 cells by MTT assay. The class given is functional, cell-based. On the technique in general: Tetrazolium dyes change colour on reduction, which living cells bring about.

With `C/C=C/C(=O)OCC1=C[C@H]2O[C@](C)(OC)[C@@](C)(OC)O[C@@H]2[C@H](F)C1=O`, the IC50 with NCI-H460 is 43 µM; in the assay with A549 it was 31 µM.
On the same counts, the results for `C/C=C/C(=O)OCC1=C[C@H]2O[C@](C)(OC)[C@@](C)(OC)O[C@@H]2CC1=O` are 60 µM and 32 µM.
On the same counts, the results for `C/C=C/C(=O)OCC1=CCCCC1=O` are 40 µM and 55 µM.
With `C/C=C/C(=O)OCC1=C[C@@H](O)[C@H](O)CC1=O`, the IC50 in the assay on NCI-H460 was found to be 158 µM; in the assay with A549 it was 147 µM.
As to `C/C=C/C(=O)OCC1=CC(O)CCC1=O` (configuration not stated), the IC50 in the assay on NCI-H460 came to 10 µM; in the assay on A549, 24 µM.
The corresponding values for `C/C=C/C(=O)OCC1=C[C@@H](O)[C@H](O)[C@H](F)C1=O` are over 200 µM and 164 µM.
